Here are results for five compounds from patent publication US7129379B2, “3-amino-propoxphenyl derivatives (l)” (William John Louis, Austin and Repatriation Medical Centre, priority 1996, dated 2006).

What is called half-life is the time needed for the level to fall by half in the phase considered. The term melting point denotes the temperature, or range, at which the solid turns liquid.

SMILES strings stand for the structures. A value given as a limit tells only on which side of the number the result lay.

Data set [1] deals with T1, β2 adrenoreceptor (guinea-pig trachea) (Cavia porcellus, UniProt Q8K4Z4).
T1 construct: five rings 1–2 mm in width are cut from the trachea; from tissue; host or cells: isolated guinea-pig tracheal rings (organ bath)
T1 sequence (Q8K4Z4 whole entry): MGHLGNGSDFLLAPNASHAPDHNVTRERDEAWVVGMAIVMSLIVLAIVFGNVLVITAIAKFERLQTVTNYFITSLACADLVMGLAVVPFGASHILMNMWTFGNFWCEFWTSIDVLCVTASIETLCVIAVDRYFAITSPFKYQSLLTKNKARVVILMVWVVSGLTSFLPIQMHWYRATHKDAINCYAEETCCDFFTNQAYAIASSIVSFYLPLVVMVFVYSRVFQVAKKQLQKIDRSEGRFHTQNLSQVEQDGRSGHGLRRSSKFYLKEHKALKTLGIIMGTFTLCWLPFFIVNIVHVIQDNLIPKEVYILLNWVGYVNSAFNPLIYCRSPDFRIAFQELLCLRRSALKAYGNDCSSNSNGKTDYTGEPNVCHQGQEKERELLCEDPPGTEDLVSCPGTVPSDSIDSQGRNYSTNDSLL
In words: Isoprenaline relaxation of carbachol-contracted isolated guinea-pig trachea (pA2). Conditions: isolated guinea-pig tracheal rings, carbachol 10^-6 M contraction, 37° C.; for Kb: read-out: Guinea Pig, pA2 Trachea, B2 (converted). From the text: (§1) Tissue preparation: The animals are killed by a rapid blow to the head followed by cervical dislocation. The chest is opened and the heart and trachea removed and placed in carbonated Krebs-Ringer-Bicarbonate solution (Krebs). Blood is carefully massaged from the chambers of the heart (see L. H. Tung, G. P. Jackman, B. Campbell, S. Louis, D. Iakovidis & W J Louis, J. Cardiovasc. Pharmacol, 21, (2), 484–488, 1993).
All extraneous tissue is dissected away and five rings 1–2 mm in width are cut from the trachea and mounted in sequence on loose loops. The rings are suspended from an isometric transducer set at a resting force of 1.0 g. The rings are then incubated in an organ bath at 37° C. in oxygenated (5% Carbogen) Krebs with 3 changes of Krebs every 10 min for 50 min. Carbachol 10^−6 M is then added to the bath to induce a contraction. Once the contractile force is stable, relaxation is induced by addition of increasing doses of isoprenaline (10^−8 to 10^−5 M) to produce the control dose-response curve. The tissue is then washed in three changes of Krebs every 10 min for 50 min before addition of the drug. After 10 minutes incubation carbachol is added once more and a fresh dose-response to isoprenaline measured. After a further wash of 50 min the control curve is repeated.
(§2) The data is used to calculate the pA2 values against atria and trachea (see Mackay, J. Pharm. Pharmacol., 30, 312–313, 1978). […] The ratio of the values indicates the selectivity of each compound.

Data set [2] in a line: Duration of beta blockade after intravenous infusion in conscious rats (heart rate response to isoprenaline). It counts as in vivo, Sprague-Dawley rats. Conditions: Sprague-Dawley, rat, plasma, iv; conscious male rats, after stopping i.v. infusion; time for inhibition of isoprenaline heart rate response to fall by 50%; read-out: Estimated Plasma Half Life. As to the method:
(§3) Healthy male Sprague-Dawley rats were prepared under anaesthesia with indwelling catheters in the carotid artery and jugular vein and allowed to recover for at least 24 h. On the day of the experiment, the arterial catheter was attached to a flexible swivel and then to a pressure transducer for the continuous recording of heart rate and blood pressure. The venous catheters were attached to an infusion pump for drug administration or to a syringe for bolus injections of isoprenaline ([…]). The catheters were suspended out of the animal's way and the rat was allowed to move freely in a small covered enclosure isolated from outside disturbance. When the BP and HR were stable isoprenaline boluses were given at intervals of 10 minutes until the maximum responses in HR were reproducible (±10%). The doses were repeated for at least 40 minutes and the last 5 readings were considered to constitute the baseline response. The doses were continued at the same interval throughtout the test period of a further 150 minutes. Approximately 3.5 minutes before the next dose of isoprenaline the infusion of the test compound was started, to allow for dead volume in the infusion line, and continued for a further 33.5 minutes.
(§4) Rats were used for more than one experiment if their catheters remained patent with daily flushing with heparinised saline, but at least 24 hours separated each experiment.
(§5) Thus rats with the left carotid artery and left jugular vein cannulated can be studied in the conscious state. This allows continuous recording of heart rate and blood pressure before and after intravenous infusions of beta blocking drugs in selected doses. The duration of beta blockade following cessation of an intravenous infusion of a beta blocking drug can be followed by studying the time taken for the increase in heart rate produced by a standard dose of isoprenaline to return to control values following cessation of the beta blocking drug infusion. The maximum recorded inhibition of the heart rate response to isoprenaline during the infusion of the test drug is estimated, and the pharmacodynamic half-life is the time taken for this inhibition to fall by 50% following the cessation of infusion of the drug.
(§6) The half-life of action of the compounds in the systemic circulation as determined as described above in vivo in rats is indicated in Table 3.

Data set [3] addresses T2, β1 adrenoreceptor (guinea-pig atria) (Cavia porcellus, UniProt H0W3H1).
T2 construct: the atria is dissected from the ventricles; from tissue; host or cells: isolated guinea-pig atria (organ bath)
In words: Isoprenaline dose-response in isolated guinea-pig atria (pA2). Conditions: isolated guinea-pig atria, antagonism of isoprenaline, 37° C.; for Kb: read-out: Guinea Pig, pA2 Atria, B1 (converted).
Source text: as §1
(§7) All extraneous tissue is carefully dissected from the heart, and the atria is dissected from the ventricles. A suture with a loop is tied to each atrium and used to suspend the tissue from an organ bath rod. The other loop is attached to a force transducer loaded with 1 g force. The atria are then maintained in the bath with oxygenated (5% Carbogen) Krebs at 37° C. with changes of Krebs at 10 minute intervals for 50 min. Isoprenaline dose response curves are then measured by addition of isoprenaline in increasing doses from 10^−11 M until a plateau in the response is observed (ca 10^−5.5 M). Doses are increased at two minute intervals and maximum force of contraction and heart rate are recorded. At the end of the dose response curve, the organ bath is flushed with fresh Krebs and washed three times every 10 minutes for 50 minutes. The dose of test drug is then added to the organ bath and allowed to equilibrate for 10 minutes. The isoprenaline does-response curve is then repeated. After washing the atria with Krebs for a further 50 minutes as before, the control does-response curve is repeated in the absence of drug.
as §2

The test system of data set [4] is β1 adrenoreceptor (guinea-pig atria). Described as above. Conditions: β1 (atria) versus β2 (trachea), from the pA2 values.
Source text: as §1, §7, §2

Data set [5] relates to heart rate response to isoprenaline. The data set is described as follows: Duration of beta blockade after intravenous infusion in conscious rats (heart rate response to isoprenaline). It counts as in vivo, Sprague-Dawley rats. Conditions: conscious male rats, after stopping i.v. infusion; time for inhibition of isoprenaline heart rate response to fall by 50%. As to the method: as §3, §4, §5, §6

T2 sequence (H0W3H1 1-470): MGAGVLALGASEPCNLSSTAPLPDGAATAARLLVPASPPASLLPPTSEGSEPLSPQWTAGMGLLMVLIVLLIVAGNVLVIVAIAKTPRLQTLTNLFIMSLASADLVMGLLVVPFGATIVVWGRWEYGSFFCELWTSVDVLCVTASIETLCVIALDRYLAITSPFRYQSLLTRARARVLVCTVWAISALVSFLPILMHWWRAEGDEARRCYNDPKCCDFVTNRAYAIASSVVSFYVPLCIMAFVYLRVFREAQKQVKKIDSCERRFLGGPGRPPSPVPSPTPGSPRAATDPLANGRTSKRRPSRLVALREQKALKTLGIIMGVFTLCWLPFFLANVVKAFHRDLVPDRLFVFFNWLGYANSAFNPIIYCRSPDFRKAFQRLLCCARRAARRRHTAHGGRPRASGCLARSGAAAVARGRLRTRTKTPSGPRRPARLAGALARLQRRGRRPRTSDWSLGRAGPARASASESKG

For the compound `COc1ccc(OCCNCC(O)COc2ccc(OCCOCC(C)C)cc2C#N)cc1` (racemic) [Example 2, 1-(2-cyano-4-(2-(2-methylpropoxy)ethoxy)phenoxy)-2-hydroxy-3-(2-(4-methoxyphenoxy)ethylamino)propane], the melting point was in the range of 69 to 71 °C. Besides, the Kb in data set [1] was 39800 nM. For the same compound, in data set [2], the half-life is approximately 17 min. Besides, the Kb in data set [3] was 39.8 nM. In data set [4], this compound gave a Selectivity of 1000.
Regarding `COc1ccc(CCNCC(O)COc2ccc(OCCOCC3CC3)cc2C#N)cc1OC` (racemic) [Example 4, 1-(2-cyano-4-(2-cyclopropylmethoxyethoxy)phenoxy)-2-hydroxy-3-(2-(3,4-dimethoxyphenyl)ethylamino)propane], the melting point is 84 to 86 °C. Further, in data set [1], the Kb was 39800 nM. In addition, the half-life in data set [2] was approximately 15 min. For the same compound, the Kb in data set [3] is 50.1 nM. Moreover, the Selectivity in data set [4] came to 794.
The like results for `COCCOc1ccc(OCC(O)CNCCOc2ccc(OC)cc2)cc1` (racemic) [Example 5, 1-(4-(2-methoxyethoxy)phenoxy)-2-hydroxy-3-(2-(4-methoxyphenoxy)ethylamino)propane] were, in that order, 113 to 115 °C, 50100 nM, 10 to 20 min, 100 nM and 501.
For `CCOCCOc1ccc(OCC(O)CNCCc2ccc(OC)c(OC)c2)cc1` (racemic) [Example 7, 1-(4-(2-ethoxyethoxy)phenoxy)-2-hydroxy-3-(2-(3,4-dimethoxyphenyl)ethylamino)propane] the same measures were 140 to 143 °C, more than 31600 nM, approximately 10 min, 63.1 nM and more than 501.
Consider `CCOCCOc1ccc(OC[C@@H](O)CNCCc2ccc(OC)c(OC)c2)cc1` [Example 1, S(−)-1-(4-(2-ethoxyethoxy)phenoxy)-2-hydroxy-3-(2-(3,4-dimethoxyphenyl)ethylamino)propane], for which the “Guinea Pig, pA2 Trachea, B2” value in data set [1] worked out at 4.3. Besides, the “Estimated Plasma Half Life” value in data set [5] is 10 to 20 min. In data set [3], the “Guinea Pig, pA2 Atria, B1” value came to 7.7. In addition, the Selectivity in data set [4] was 2512.
